In the test the test system is Plasmodium falciparum. The test can be described thus: GSK_TCMDC: Inhibition of Plasmodium falciparum 3D7 in whole erythrocytes, using parasite LDH activity as an index of growth. The format is functional, organism-based. The following applies: Plasmodium falciparum, 3D7.
`CC(C)(C)N1CCC(N(Cc2ccc(-c3ccc(C(F)(F)F)cc3)cc2)C(=O)Cn2c(CCc3cccc(F)c3F)nc(=O)c3cccnc32)CC1` gave an XC50 of 757 nM.
In the case of `CCCC(CNCc1cccc(SC(F)(F)F)c1)CNc1cc(=O)c2ccccc2[nH]1` (centres undefined), the XC50 was 715 nM.
Next, `Cc1cc(C2CCN(CCCCNC(=O)c3ccc(-c4ccc(C(F)(F)F)cc4)cc3)CC2)c(C)cc1OCCOC1CCCCO1` (centres undefined): 785 nM; `CC(C)Nc1nc(NCCc2c[nH]cn2)nc(NCc2ccc(Cl)c(Cl)c2)n1`: 962 nM.
To `CC(=O)Nc1nc(C(=O)Nc2cccc(-c3cccc(-c4nc5cc(F)ccc5[nH]4)c3)c2)cs1` belongs 89.2 nM.
Next, `c1ccc(Oc2ccc(Nc3ccnc4cc(-c5ccc(CN6CCCCC6)o5)ccc34)cc2)nc1`: 331 nM; `Cc1cc(Nc2c(C(N)=O)cnc3cc(-c4ccoc4)ccc23)ccc1N1CCN(C)CC1`: 797 nM; `O=C(N[C@H]1CCN(Cc2ccc(OCCN3CCNCC3)c(Cl)c2)C1)c1ccc(Cl)c(Cl)c1`: 1060 nM.
With `O=C(NCc1cccc2ccccc12)[C@@H]1CCCN1C(=O)c1ccc(O)c(-c2ccc(Cl)c(Cl)c2)c1`, the XC50 was 948 nM.
To `Cc1cccc2nc(-c3ccc(-c4ccc(NC(=O)C(C)CN5CCN(C)CC5)cc4)s3)[nH]c12` (centres undefined) belongs 731 nM.
Take `COc1ccc2nccc(N3CCN(CCNCc4ccc5c(n4)NC(=O)CO5)CC3)c2n1`: the XC50 turned out to be 885 nM.
Next, `O=C(Nc1cccc(-c2cc(-c3c(Cl)cccc3Cl)no2)c1)c1cncc(-c2cccs2)c1`: 952 nM.
To `O=C(NCC1CCC(C(=O)NCc2cccc(C(F)(F)F)c2)CC1)c1ccc(O)c(-c2ccc(Cl)c(Cl)c2)c1` (centres undefined) belongs 711 nM; to `CN1CCN(c2cc3c(cc2Cl)CCN3C(=O)Nc2ccc(NC(=O)c3ccc(C(F)(F)F)cc3)cc2)CC1`, 515 nM.
On to `CN1CCN(CC(=O)Nc2cccc(-c3cccc(-c4nc5cc(F)ccc5[nH]4)c3)c2)CC1`, for which the XC50 turned out to be 741 nM.
To `Fc1ccc2[nH]c(-c3ccc(-c4ccc(CN5CCN(CCN6CCOCC6)CC5)cc4)cc3)nc2c1` belongs 183 nM; to `COc1ccc2ncc(C#N)c(CCN3CCC(NCc4ccc5c(c4)OCCO5)CC3)c2c1`, 910 nM; to `COc1ccc(CCN(C)CCCN2CCC(NC(=O)c3cccc4c(=O)c5ccccc5sc34)CC2)cc1OC`, 786 nM.
To `CCOc1cc2ccccc2cc1CNCCCCCCNCc1cc2ccccc2cc1OCC` belongs 979 nM; to `CCC1CN2CCc3c([nH]c4ccc(OC)cc34)C2CC1CC1NCCc2cc(OC)c(OC)cc21` (centres undefined), 862 nM; to `CN(c1cc(NC(=O)c2cccs2)ccn1)C1CCN(Cc2cccc(C#N)c2)CC1`, 1260 nM.
On to `Cc1ccc(CC(C)(C)NCC(O)c2cccc(C(F)(F)F)c2)cc1` (centres undefined), for which the XC50 amounted to 836 nM.
`COc1ccc(NC(=O)/C=C/c2ccccc2Cl)cc1OCCN1CCC(Cc2cc3ccccc3[nH]2)CC1`: the XC50 stood at 903 nM.
In the case of `COC(=O)c1cccc(NC(=O)NC2CCN(c3ccnc(NCc4ccc(F)cc4)n3)CC2)c1`, the XC50 stood at 809 nM.
In turn, `CC1(C)NC(N)=NC(=N)N1OCc1cc(Cl)c(Cl)cc1CON1C(=N)N=C(N)NC1(C)C` displayed an XC50 of 14.6 nM.
For the molecule `Clc1ccc2nnc(-c3c(Cl)cccc3Cl)n2n1`, the XC50 was found to be 905 nM.
To `O=C(C=Cc1ccccc1O)N1CCC(CN2CCC(c3c[nH]c4ccccc34)CC2)CC1` belongs 961 nM; to `COc1ccccc1CNC(=O)C(=O)Nc1c(-c2ccccc2)[nH]c2ccccc12`, 737 nM.
As to `Cc1cc(NCCc2cccc(F)c2)nc(NC(=N)Nc2cccc(C(F)(F)F)c2)n1`, the XC50 was 146 nM.
Next, `COc1ccc(C2CCN(CCN3CCC(NC(=O)c4cccc(-c5ccncc5)c4)CC3)CC2)c(OC)c1`: 797 nM; `O=C(Cc1ccsc1)NCC(c1ccccc1Cl)c1c[nH]c2ccccc12` (centres undefined): 950 nM.
To `CCCCCCCNCc1c(O)ccc2c(CNCCCCCCC)c(O)ccc12` belongs 150 nM; to `CC(C)(CNCCOc1ccc(Cl)cc1)c1nc(-c2ccnc(N)n2)c(-c2ccc(Cl)c(O)c2)[nH]1`, 834 nM.
Next, `C[C@@H](NC(=O)c1nn(-c2ccc(Cl)cc2)c(=O)c2ccccc12)C(C)(C)C`: 1120 nM; `COc1cc(CS(C)(=O)=O)ccc1Nc1nccc(-c2c(-c3cccc(NC(=O)c4c(F)cccc4F)c3)nn3ccccc23)n1`: 966 nM; `CCOC(=O)c1ccc(NC(=O)NNC(=O)c2ccc(CCN3CCC(c4nc(COCC(F)(F)F)c(-c5ccc(F)cc5)o4)CC3)cc2)cc1`: 574 nM.
`COc1ccc(OCCCN2CCN(CC(c3ccc(F)cc3)N3CCN(C(C)C)CC3)CC2)c2ccccc12` (centres undefined) returned an XC50 of 650 nM.
Next, `C[C@@H]1CC[C@H](NC(=O)[C@H](CC2CCCC2)NC(=O)N2CCNCC2)C(=O)CN1S(=O)(=O)c1ccccn1`: 891 nM; `Cc1ccc(O)cc1Nc1ccnc2cc(-c3csc(CN(C)CCN(C)C)n3)ccc12`: 789 nM; `CC(=O)Nc1cccc(CN(Cc2ccc(-c3ccc(CNCc4cccnc4)cn3)cc2)C(=O)Cc2cccnc2)c1`: 820 nM.
Next, `O=C(Nc1cccc(CN2CCCN(Cc3ncc[nH]3)CC2)c1)c1cc2ccccc2s1`: 734 nM; `Cc1cc(S(=O)(=O)N2CCCCC(c3ccc(C(F)(F)F)cc3)=N2)c(Cl)cc1Cl`: 504 nM; `O=C(NC1CCN(Cc2ccccc2)CC1)c1cccc(Nc2nc(-c3ccccc3)cs2)c1`: 1030 nM.
`Clc1ccc(OC2CCC(Cn3ccnc3)(c3ccc(Cl)cc3Cl)CC2)c(Cl)c1` (centres undefined) displayed an XC50 of 800 nM.
In turn, `CCCc1cc(NC2CCN(C)CC2)nc(Nc2cccc(OC)c2)n1` had an XC50 of 765 nM.
To `Cc1ccc(CNC(=O)[C@H](CCCN)Nc2cc(C)nc(NCC3CCCCC3)n2)cc1` belongs 1220 nM.
To `CCCNCc1ccc(-c2ccc(CN(CC3CCCO3)C(=O)COc3ccccc3Cl)cc2)nc1` (centres undefined) belongs 1180 nM; to `CCOc1cc[nH]c(=O)n1`, 458 nM.
To `COc1ccc(-n2cc(C(=O)c3cc(Br)ccc3O)cc(C#N)c2=O)cc1Cl` belongs 791 nM; to `CCCN/C=N/c1cc(-c2csc(NC(=N)N)n2)cc([N+](=O)[O-])c1`, 1740 nM; to `Cc1ccc(-c2cc(C(=O)Nc3ccc(S(=O)(=O)N4CC(C)OC(C)C4)cc3)[nH]n2)c(O)c1` (centres undefined), 608 nM.
As to `Cc1cccc2nc(-c3cccc(-c4ccc(NC(=O)Nc5ccc(Cl)cc5)cc4)c3)[nH]c12`, the XC50 was determined as 199 nM.
To `CN(C)C(=S)N/N=C1/C(=O)Nc2ccc(OC(F)(F)F)cc21` belongs 1020 nM; to `Cc1cc(C(=O)CSc2nc3ccccc3n2-c2ccccc2)c(C)n1C1CCS(=O)(=O)C1` (centres undefined), 1000 nM; to `O=C(NC1CCN(c2ccnc3ccccc23)C1)c1ccc(OC(F)(F)F)cc1` (centres undefined), 1150 nM.
To `COC(=O)C1(NC(=O)c2ccc(-n3nc(C)c(-c4ccccc4)c3N)cc2)CCCC1` belongs 370 nM.
To `CCNC(=O)N[C@@H]1CN[C@@H](C#Cc2cc3c(Nc4ccc(OCc5cccc(F)c5)c(Cl)c4)ncnc3s2)C1` belongs 1010 nM; to `CN1CCC(N(C)C(=O)C=Cc2cn(-c3ccccc3)nc2-c2cc3ccccc3o2)CC1`, 1340 nM; to `Cc1cc(-c2ccc3c(c2)CCN(CCC2CCC(NC(=O)/C=C/c4ccc(F)cc4)CC2)CC3)on1` (centres undefined), 724 nM.

Values taken from ChEMBL document CHEMBL1157539, “Thousands of chemical starting points for antimalarial lead identification” (Nature, 2010).
